From US6855730B2, “3-methylidenyl-2-indolinone modulators of protein kinase” (Sugen, Inc., priority 1998, dated 2005) come the findings set out here.

Assay [1] deals with EGFR (Homo sapiens, UniProt P00533). The assay is described as follows: Biochemical EGFR assay (ELISA, A431 cell lysate). To be noted: read-out: bio EGFr IC50. The arrangement: A431 cell lysate (Screening Lab, SUGEN, Inc.); host or cells: A431. In short, it runs like this:
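EGFR captured from A431 cell lysate onto anti-EGFR-coated plates, then incubated with test compound for 30 min at room temperature. Tyrosine phosphorylation with ATP/MnCl2 was stopped with EDTA after 5 min and detected by anti-phosphotyrosine ELISA with peroxidase/ABTS read-out.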
Background: An ELISA detects its analyte on a solid surface through an enzyme-linked reagent.

Assay [2] concerns the target pyk2 (Homo sapiens, UniProt Q14289). The assay is described as follows: bio pyk2 assay. Format: biochemical.
The target of assay [3] is T1, 3T3 cell line genetically engineered to express human PDGF-R (Homo sapiens, UniProt P09619).
T1 construct: expressed in transfected cells; host or cells: 3T3
The assay is described as follows: PDGF-induced BrdU incorporation assay. Format: cell-based. For orientation: Dividing cells build labelled thymidine or BrdU into new DNA.
Description: The general procedure is as follows: a compound is introduced to cells expressing the test kinase, either naturally or recombinantly, for a selected period of time after which, if the test kinase is a receptor, a ligand known to activate the receptor is added. […] The cellular/biologic assays described herein measure the amount of DNA made in response to activation of a test kinase, which is a general measure of a proliferative response. The general procedure for this assay is as follows: a compound is introduced to cells expressing the test kinase, either naturally or recombinantly, for a selected period of time after which, if the test kinase is a receptor, a ligand known to activate the receptor is added. After incubation at least overnight, a DNA labeling reagent such as Bromodeoxyuridine (BrdU) or 3H-thymidine is added. The amount of labeled DNA is detected with either an anti-BrdU antibody or by measuring radioactivity and is compared to control cells not contacted with a test compound.
PDGF-Induced BrdU Incorporation Assay
Protocol • (1) Cells are seeded at 8000 cells/well in DMEM, 10% CS, 2mM Gln in a 96 well plate. […] The negative control wells receive serum free DMEM with 0.1% BSA only, the positive control cells receive the ligand (PDGF) but no test compound. […] FixDenat solution is added (50 μ/well) and the plates are incubated at room temperature for 45 minutes on a plate shaker. • (6) The FixDenat solution is thoroughly removed by decanting and tapping the inverted plate on a paper towel. Milk is added (5% dehydrated milk in PBS, 200 μ/well) as a blocking solution and the plate is incubated for 30 minutes at room temperature on a plate shaker. • (7) The blocking solution is removed by decanting and the wells are washed once with PBS. Anti-BrdU-POD solution (1:100 dilution in PBS, 1% BSA) is added (100 μl/well) and the plate is incubated for 90 minutes at room temperature on a plate shaker. • (8) The antibody conjugate is thoroughly removed by decanting and rinsing the wells 5 times with PBS, and the plate is dried by inverting and tapping on a paper towel. • (9) TMB substrate solution is added (100 μl/well) and incubated for 20 minutes at room temperature on a plate shaker until color development is sufficient for photometric detection. • (10) The absorbance of the samples are measured at 410 nm (in “dual wavelength” mode with a filter reading at 490 nm, as a reference wavelength) on a Dynatech ELISA plate reader.

In assay [4] the test system is HUV-EC-C cells (VEGF, Flk-1/KDR). Kind of assay: HUV-EC-C assay, VEGF-stimulated 3H-thymidine incorporation. It is filed as cell-based. The note with it: Homo sapiens, read-out: HUVEC-VEGF IC50.
Description: Repeat the wash two more times with D-PBS, resuspend the cells in-about 1 ml assay medium/15 cm^2 of tissue culture flask. […] Add cells to 96-well flat-bottom plates at 100 μl/well or 0.8-1.0×10^4 cells/well, incubate −24h at 37° C., 5% CO2.
Use the same assay medium as mentioned in day 0, step 2 above. Titrations are made by adding 90 μl/well of test compound at 200 μM (4× the final well concentration) to the top well of a particular plate column. Since the stock test compound is usually 20 mM in DMSO, the 200 μM drug concentration contains 2% DMSO.
A diluent made up to 2% DMSO in assay medium (F12K+0.5% fetal bovine serum) is used as diluent for the test compound titrations in order to dilute the test compound but keep the DMSO concentration constant. Add this diluent to the remaining wells in the column at 60 μl/well. Take 60 μl from the 120 μl of 200 μM test compound dilution in the top well of the column and mix with the 60 μl in the second well of the column. Take 60 μl from this well and mix with the 60 μl in the third well of the column, and so on until two-fold titrations are completed. When the next-to-the-last well is mixed, take 60 μl of the 120 μl in this well and discard it. Leave the last well with 60 μl of DMSO/media diluent as a non-test compound-containing control. […] In triplicate, add 50 μl/well of 80 μg/ml VEGF, 20 ng/ml ECGF, or media control to each test compound condition. As with the test compounds, the growth factor concentrations are 4× the desired final concentration. Use the assay media from day 0 step 2 to make the concentrations of growth factors.
Freeze plates overnight at −20° C.
Assay [5] has as its target T2, src protein kinase (Gallus gallus, UniProt P00523).
T2 construct: host or cells: Schizosaccharomyces pombe SP200
The assay is described as follows: Biochemical SRC assay (phosphorylation of biotinylated peptide). To be noted: read-out: bio src IC50.
Description: This assay is used to determine src protein kinase activity measuring phosphorylation of a biotinylated peptide as the readout.
Yeast transformed with src (Sugen, Inc., Redwood City, Calif.). • b. Cell lysates: Yeast cells expressing src are pelleted, washed once with water, re-pelleted and stored at −80° C. until use. • c. N-terminus biotinylated [sequence] is prepared by standard procedures well known to those skilled in the art. • d. DMSO: Sigma, St. Louis, Mo. • e. […] Vecastain ELITE ABC reagent: Vector, Burlingame, Calif. • h. […] S. Pombe strain SP200 (h-s leul.32 ura4 ade210) is grown as described and transformations are pRSP expression plasmids are done by the lithium acetate method (Superti-Furga, supra). Cells are grown in the presence of 1 μM thiamine to repress expression from the nmtl promoter or in the absence of thiamine to induce expression. • i. […] Turbo TMB-ELISA peroxidase substrate: Pierce Chemical.
Buffer Solutions • a. PBS (Dulbecco's Phosphate-Buffered Saline): GIBCO PBS, GIBCO Cat. #450-1300EB. • b. Blocking Buffer: 5% Non-fat milk (Carnation) in PBS. • c. Carbonate Buffer: Na2CO4 from Fischer, Cat. # S495, make up 100 mM stock solution. • d. Kinase Buffer: 1.0 ml (from 1M stock solution) MgCl2, 0.2 ml (from a 1M stock solution) MnCl2, 0.2 ml (from a 1M stock solution) DTT, 5.0 ml (from a 1M stock solution) HEPES, 0.1 ml TX-100, bring to 10 ml total volume with MilliQ H2O. • e. […] NaCl: Fischer Cat. # S271-10, Make up 5M stock solution with MilliQ H2O. • i. […] MgCl2: Fischer Cat. # M33-500, make up 1M stock solution with MilliQ H2O. • k. […] MnCl2: Fischer Cat. # M87-100, make up 1M stock solution with MilliQ H2O. • n. DTT: -Fischer Cat. # BP172-5. • o. […] Kinase Reaction Mixture: Amount per assay plate (100 wells): 1.0 ml Kinase Buffer, 200 λg GST-ζ, bring to final volume of 8.0 ml with MilliQ H2O. • q. […] Then add 1 drop of reagent B. Put tube on orbital shaker at room temperature and mix for 30 minutes.
Preparation of src Coated ELISA Plate. • 1. Coat ELISA plate with 0.5 μg/well anti-src mab in 100 μl of pH 9.6 sodium carbonate buffer, hold at 40° C. overnight. • 2. Wash wells once with PBS. • 3. […] Wash plate 5× with PBS. • 5. Add 10 μg/well of src transformed yeast lysates diluted in Lysis Buffer (0.1 ml total volume per well). (Amount of lysate may vary between batches.) Shake plate for 20 minutes at room temperature.
Preparation of Phosphotyrosine Antibody-coated ELISA Plate. • 1. 4G10 plate: coat 0.5 μg/well 4G10 in 100 μl PBS overnight at 4° C. and block with 150 μl of 5% milk in PBS for 30 minutes at room temperature.
Kinase Assay Procedure. • 1. Remove unbound proteins from plates and wash plates 5× with PBS. • 2. […] Wash plate 5× with TBST. • 10. Incubate with Vectastain ELITE ABC reagent (100 μl/well) for 30 min. at room temperature. • 11. Wash the wells 5× with TBST. • 12. Develop with Turbo TMB.

Where [6] appears, read: read-out: PDGF-Induced BrdU Incorp. IC50.

Each structure is given as a SMILES string. Read-outs that look alike come from different tables or passages of the source.

pyk2, sequence (Q14289 whole entry, species assumed): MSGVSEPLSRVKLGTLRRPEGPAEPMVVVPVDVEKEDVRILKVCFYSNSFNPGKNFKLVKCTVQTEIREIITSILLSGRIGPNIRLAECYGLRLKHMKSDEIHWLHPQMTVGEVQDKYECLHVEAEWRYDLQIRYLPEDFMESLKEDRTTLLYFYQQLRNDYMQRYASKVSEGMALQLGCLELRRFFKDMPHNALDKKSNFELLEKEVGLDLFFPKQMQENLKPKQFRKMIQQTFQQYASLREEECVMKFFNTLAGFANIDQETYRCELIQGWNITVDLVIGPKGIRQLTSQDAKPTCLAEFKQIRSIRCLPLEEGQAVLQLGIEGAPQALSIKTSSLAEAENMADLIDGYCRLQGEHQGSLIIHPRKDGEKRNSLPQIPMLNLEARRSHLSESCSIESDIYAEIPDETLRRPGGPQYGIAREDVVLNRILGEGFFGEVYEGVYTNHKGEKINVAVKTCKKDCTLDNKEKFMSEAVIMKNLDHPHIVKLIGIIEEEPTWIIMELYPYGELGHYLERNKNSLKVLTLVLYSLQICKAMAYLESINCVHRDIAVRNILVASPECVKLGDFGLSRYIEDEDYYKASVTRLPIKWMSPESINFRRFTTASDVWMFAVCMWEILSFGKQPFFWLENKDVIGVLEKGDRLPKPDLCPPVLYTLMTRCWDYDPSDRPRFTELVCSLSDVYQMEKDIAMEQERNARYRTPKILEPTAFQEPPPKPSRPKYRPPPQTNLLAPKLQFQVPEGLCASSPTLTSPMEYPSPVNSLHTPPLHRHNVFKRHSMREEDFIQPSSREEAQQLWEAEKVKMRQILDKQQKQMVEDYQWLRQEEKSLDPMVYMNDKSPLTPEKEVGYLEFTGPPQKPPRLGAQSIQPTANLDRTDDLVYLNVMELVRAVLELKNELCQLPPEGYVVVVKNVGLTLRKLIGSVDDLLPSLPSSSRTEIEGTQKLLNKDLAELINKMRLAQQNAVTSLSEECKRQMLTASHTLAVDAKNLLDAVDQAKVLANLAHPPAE
EGFR, sequence (P00533 25-1210): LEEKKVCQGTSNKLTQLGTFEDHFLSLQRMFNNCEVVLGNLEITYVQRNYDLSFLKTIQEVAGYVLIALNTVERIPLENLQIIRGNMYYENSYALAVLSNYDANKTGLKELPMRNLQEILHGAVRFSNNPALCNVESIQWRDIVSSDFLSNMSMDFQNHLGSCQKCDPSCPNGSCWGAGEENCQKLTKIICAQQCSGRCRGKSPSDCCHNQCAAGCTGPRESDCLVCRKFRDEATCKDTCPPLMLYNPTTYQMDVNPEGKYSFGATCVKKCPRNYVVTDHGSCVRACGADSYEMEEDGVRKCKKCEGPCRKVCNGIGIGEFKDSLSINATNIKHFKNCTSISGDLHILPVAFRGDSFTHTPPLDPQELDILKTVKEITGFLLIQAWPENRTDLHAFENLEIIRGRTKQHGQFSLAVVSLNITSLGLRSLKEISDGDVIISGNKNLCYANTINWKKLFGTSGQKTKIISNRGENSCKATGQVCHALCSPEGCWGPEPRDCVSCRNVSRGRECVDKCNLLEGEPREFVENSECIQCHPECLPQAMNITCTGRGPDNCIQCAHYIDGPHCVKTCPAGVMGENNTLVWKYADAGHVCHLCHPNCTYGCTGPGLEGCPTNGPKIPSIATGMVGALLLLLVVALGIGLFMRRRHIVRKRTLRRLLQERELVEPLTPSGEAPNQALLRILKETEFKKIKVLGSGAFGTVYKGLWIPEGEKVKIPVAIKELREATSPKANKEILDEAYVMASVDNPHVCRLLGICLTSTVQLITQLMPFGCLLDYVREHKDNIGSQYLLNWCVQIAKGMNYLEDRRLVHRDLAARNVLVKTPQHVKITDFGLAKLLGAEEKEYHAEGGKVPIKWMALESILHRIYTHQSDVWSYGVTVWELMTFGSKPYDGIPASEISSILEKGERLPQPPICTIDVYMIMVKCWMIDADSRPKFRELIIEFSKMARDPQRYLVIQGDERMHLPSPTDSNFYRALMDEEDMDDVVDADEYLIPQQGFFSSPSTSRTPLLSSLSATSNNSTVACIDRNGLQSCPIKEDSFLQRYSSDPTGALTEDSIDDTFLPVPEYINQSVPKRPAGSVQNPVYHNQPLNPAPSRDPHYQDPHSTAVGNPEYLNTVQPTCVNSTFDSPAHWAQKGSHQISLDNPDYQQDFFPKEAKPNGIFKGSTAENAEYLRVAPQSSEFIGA

One may read the IC50 as the point on the concentration scale where inhibition reaches its midpoint. Consider `CNC(=O)CCc1c(/C=C2\C(=O)Nc3ccccc32)[nH]c2c1CCCC2` [Example 201, N-Methyl-3-[2-(2-oxo-1,2-dihydroindol-3-ylidenemethyl)-4,5,6,7-tetrahydro-1H-indol-3-yl]-propionamide], for which the IC50 was over 100 µM in assay [1], 6.61 µM in assay [2], 3.9 µM in assay [3] (setting [6]) and under 30 nM in assay [4].
The corresponding values for `NC(=O)CCc1c(/C=C2\C(=O)Nc3ccccc32)[nH]c2c1CCCC2` [Example 199, 3-[2-(2-Oxo-1,2-dihydroindol-3-ylidenemethyl)-4,5,6,7-tetrahydro-1H-indol-3-yl]-propionamide] are over 100 µM, 2.83 µM, 3.5 µM and under 30 nM.
As for `Cc1c[nH]c(/C=C2\C(=O)Nc3ccc(Cl)cc32)c1CCC(=O)O` [Example 216, 3-[2-(5-Chloro-2-oxo-1,2-dihydroindol-3-ylidenemethyl)-4-methyl-1H-pyrrol-3-yl]-propionic acid], the IC50 in assay [1] is over 100 µM; in assay [2] it was 23.9 µM; in assay [5], 4.75 µM; in assay [4] it was under 70 nM.
For `Cc1cccc2c1/C(=C/c1[nH]c3c(c1CCC(=O)O)CCCC3)C(=O)N2` [Example 193, 3-[2-(4-Methyl-2-oxo-1,2-dihydroindol-3-ylidenemethyl)-4,5,6,7-tetrahydro-1H-indol-3-yl]-propionic acid], the IC50 was 90.7 µM in assay [1], 17.3 µM in assay [2], 48.6 µM in assay [5] and 13.5 µM in assay [3] (setting [6]).
Take `Cc1c[nH]c(/C=C2\C(=O)Nc3ccc(Br)cc32)c1CCC(=O)O` [Example 220, 3-[2-(5-Bromo-2-oxo-1,2-dihydroindol-3-ylidenemethyl)-4-methyl-1H-pyrrol-3-yl]-propionic acid]: the concentration for half-maximal inhibition (IC50) in assay [2] is 1.89 µM; in assay [5], 6.48 µM; in assay [3] (setting [6]), 8.5 µM; in assay [4], 40 nM.
The corresponding values for `O=C(O)CCc1c(/C=C2\C(=O)Nc3ccc(Br)cc32)[nH]c2c1CCCC2` [Example 192, 3-[2-(5-Bromo-2-oxo-1,2-dihydroindol-3-ylidenemethyl)-4,5,6,7-tetrahydro-1H-indol-3yl]-propionic acid] are 4.87 µM, 10.5 µM, 1.4 µM and 0.3 nM.
In the case of `Cc1ccc2c(c1)/C(=C/c1[nH]c3c(c1CCC(=O)O)CCCC3)C(=O)N2` [Example 194, 3-[2-(5-Methyl-2-oxo-1,2-dihydroindol-3-ylidenemethyl)-4,5,6,7-tetrahydro-1H-indol-3-yl]-propionic acid], the IC50 in assay [2] stood at 4.09 µM; in assay [5], 20.6 µM; in assay [3] (setting [6]), 14.2 µM; in assay [4], 1 nM.
In the case of `Cc1c[nH]c(/C=C2\C(=O)Nc3cccc(C)c32)c1CCC(=O)O` [Example 218, 3-[2-(4-Methyl-2-oxo-1,2-dihydroindol-3-ylidenemethyl)-4-methyl-1H-pyrrol-3-yl]-propionic acid], the results for the IC50 in assay [2], in assay [3] (setting [6]) and in assay [4] were 32.3 µM, 24.8 µM and under 70 nM, respectively.
As to `O=C(O)CCc1c(/C=C2\C(=O)Nc3cc(Cl)ccc32)[nH]c2c1CCCC2` [Example 195, 3-[2-(6-Chloro-2-oxo-1,2-dihydroindol-3-ylidenemethyl)-4,5,6,7-tetrahydro-1H-indol-3-yl]-propionic acid], the IC50 in assay [1] is 36.5 µM; in assay [2], 10.7 µM; in assay [5] it was 0.26 µM; in assay [3] (setting [6]), 3.7 µM.
Consider `O=C(O)CCc1c(/C=C2\C(=O)Nc3ccc(Cl)cc32)[nH]c2c1CCCC2` [Example 191, 3-[2-(5-Chloro-2-oxo-1,2-dihydroindol-3-ylidenemethyl)-4,5,6,7-tetrahydro-1H-indol-3-yl]-propionic acid], for which the half-maximal inhibitory concentration (IC50) in assay [1] was over 100 µM; in assay [2], 68.5 µM; in assay [5], 12 µM; in assay [3] (setting [6]) it was 1.1 µM; in assay [4], 0.04 nM.
For `Cc1c[nH]c(/C=C2\C(=O)Nc3ccccc32)c1CCC(=O)O` [Example 215, 3-[4-Methyl-2-(2-oxo-1,2-dihydroindol-3-ylidenemethyl)-1H-pyrrol-3-yl]-propionic acid], the IC50 in assay [1] was over 100 µM; in assay [2] it was 6.9 µM; in assay [5], 5.59 µM; in assay [3], 20 µM.
Turning to `COc1ccc2c(c1)NC(=O)/C2=C\c1[nH]c2c(c1CCC(=O)O)CCCC2` [Example 196, 3-[2-(6-Methoxy-2-oxo-1,2-dihydroindol-3-ylidenemethyl)-4,5,6,7-tetrahydro-1H-indol-3-yl]-propionic acid], the half-inhibitory concentration (IC50) in assay [2] stood at 2.37 µM; in assay [5] it was 11.3 µM; in assay [3] (setting [6]), 3 µM; in assay [4], 20 nM.
Take `CN(C)CCCc1c(/C=C2\C(=O)Nc3ccccc32)[nH]c2c1CCCC2` [Example 198, 3-[3-(3-Dimethylaminopropyl)-4,5,6,7-tetrahydro-1H-indol-2-ylmethylene]-1,3-dihydroindol-2-one]: the IC50 in assay [1] is over 100 µM; in assay [2], 1.5 µM; in assay [5] it was 2.34 µM; in assay [3] (setting [6]) it was 4.2 µM.
For the molecule `O=C(CCc1c(/C=C2\C(=O)Nc3ccccc32)[nH]c2c1CCCC2)NCCN1CCOCC1` [Example 202, N-(2-Morpholin-4-ylethyl)-3-[2-(2-oxo-1,2-dihydroindol-3-ylidenemethyl)-4,5,6,7-tetrahydro-1H-indol-3-yl]-propionamide], the half-inhibitory concentration (IC50) in assay [1] is over 100 µM; in assay [5], over 50 µM; in assay [3] (setting [6]), 5.2 µM; in assay [4], under 30 nM.
With `COc1ccc2c(c1)NC(=O)/C2=C\c1[nH]cc(C)c1CCC(=O)O` [Example 217, 3-[2-(6-Methoxy-2-oxo-1,2-dihydroindol-3-ylidenemethyl)-4-methyl-1H-pyrrol-3-yl]-propionic acid], the 50% inhibitory concentration (IC50) in assay [1] is over 100 µM; in assay [2], 2.89 µM; in assay [5] it was 3.68 µM; in assay [3] (setting [6]) it was 8.7 µM.
The corresponding values for `Cc1c[nH]c(C=C2C(=O)Nc3cc(Cl)ccc32)c1CCC(=O)O` [Example 219, 3-[2-(6-Chloro-2-oxo-1,2-dihydroindol-3-ylidenemethyl)-4-methyl-1H-pyrrol-3-yl]-propionic acid] are 98.1 µM, 4.15 µM, 0.08 µM and 7.9 µM.
As to `CN(C)C(=O)CCc1c(/C=C2\C(=O)Nc3ccccc32)[nH]c2c1CCCC2` [Example 197, N,N-Dimethyl-3-[2-(2-oxo-1,2-dihydroindol-3-ylidenemethyl)-4,5,6,7-tetrahydro-1H-indol-3-yl]-propionamide], the IC50 in assay [1] is over 100 µM; in assay [2] it was 12 µM; in assay [3] (setting [6]), 4.9 µM; in assay [4], under 3 nM.
